Test results: ChEMBL document CHEMBL3784917, “Recent Progress in Histone Demethylase Inhibitors” (J Med Chem, 2016)

Columns and labels:
[1] = molecular target: Lysine-specific demethylase 5A (Homo sapiens, UniProt P29375)
[2] = molecular target: T1, Lysine-specific demethylase 4A (Homo sapiens, UniProt O75164); assay: biochemical
T1 sequence (O75164 whole entry): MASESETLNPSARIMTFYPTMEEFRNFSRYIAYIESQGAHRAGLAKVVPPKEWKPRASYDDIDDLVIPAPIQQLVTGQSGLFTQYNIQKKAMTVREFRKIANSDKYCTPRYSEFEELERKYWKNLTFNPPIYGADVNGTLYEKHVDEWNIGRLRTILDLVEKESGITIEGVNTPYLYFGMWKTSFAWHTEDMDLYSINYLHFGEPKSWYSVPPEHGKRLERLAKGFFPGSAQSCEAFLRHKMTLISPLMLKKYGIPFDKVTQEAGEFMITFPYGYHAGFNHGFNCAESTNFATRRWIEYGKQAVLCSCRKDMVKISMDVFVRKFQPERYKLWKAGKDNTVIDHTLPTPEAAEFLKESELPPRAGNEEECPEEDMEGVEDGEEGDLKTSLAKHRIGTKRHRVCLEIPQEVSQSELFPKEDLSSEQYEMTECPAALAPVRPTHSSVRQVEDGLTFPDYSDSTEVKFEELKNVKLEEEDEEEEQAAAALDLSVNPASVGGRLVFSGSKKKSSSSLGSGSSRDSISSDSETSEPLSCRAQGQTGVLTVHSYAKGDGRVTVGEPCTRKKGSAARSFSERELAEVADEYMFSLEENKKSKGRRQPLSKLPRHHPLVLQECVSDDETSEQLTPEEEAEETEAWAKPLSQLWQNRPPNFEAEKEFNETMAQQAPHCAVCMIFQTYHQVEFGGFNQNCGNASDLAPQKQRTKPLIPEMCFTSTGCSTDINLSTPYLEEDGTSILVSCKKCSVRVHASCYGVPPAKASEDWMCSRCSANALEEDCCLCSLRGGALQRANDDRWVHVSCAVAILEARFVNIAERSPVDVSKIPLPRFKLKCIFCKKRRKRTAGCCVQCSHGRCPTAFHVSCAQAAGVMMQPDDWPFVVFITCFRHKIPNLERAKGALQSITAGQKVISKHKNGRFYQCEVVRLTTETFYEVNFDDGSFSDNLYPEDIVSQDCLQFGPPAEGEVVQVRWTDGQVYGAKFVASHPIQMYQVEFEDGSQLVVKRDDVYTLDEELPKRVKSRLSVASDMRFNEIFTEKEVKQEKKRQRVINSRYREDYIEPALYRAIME

[3] = Growth inhibition of human MIAPaCa2 cells after 48 hrs by CellTiter-Glo assay; type: functional; settings: MIA PaCa-2, 48 h
[4] = molecular target: T2, Lysine-specific demethylase 2A (Homo sapiens, UniProt Q9Y2K7); assay: Inhibition of KDM2A in human MIAPaCa2 cells assessed as increase in H3K36me2 level after 48 hrs by Hoechst 33258 staining based immunofluorescence assay; type: cell-based, MIA PaCa-2
T2 sequence (Q9Y2K7 whole entry): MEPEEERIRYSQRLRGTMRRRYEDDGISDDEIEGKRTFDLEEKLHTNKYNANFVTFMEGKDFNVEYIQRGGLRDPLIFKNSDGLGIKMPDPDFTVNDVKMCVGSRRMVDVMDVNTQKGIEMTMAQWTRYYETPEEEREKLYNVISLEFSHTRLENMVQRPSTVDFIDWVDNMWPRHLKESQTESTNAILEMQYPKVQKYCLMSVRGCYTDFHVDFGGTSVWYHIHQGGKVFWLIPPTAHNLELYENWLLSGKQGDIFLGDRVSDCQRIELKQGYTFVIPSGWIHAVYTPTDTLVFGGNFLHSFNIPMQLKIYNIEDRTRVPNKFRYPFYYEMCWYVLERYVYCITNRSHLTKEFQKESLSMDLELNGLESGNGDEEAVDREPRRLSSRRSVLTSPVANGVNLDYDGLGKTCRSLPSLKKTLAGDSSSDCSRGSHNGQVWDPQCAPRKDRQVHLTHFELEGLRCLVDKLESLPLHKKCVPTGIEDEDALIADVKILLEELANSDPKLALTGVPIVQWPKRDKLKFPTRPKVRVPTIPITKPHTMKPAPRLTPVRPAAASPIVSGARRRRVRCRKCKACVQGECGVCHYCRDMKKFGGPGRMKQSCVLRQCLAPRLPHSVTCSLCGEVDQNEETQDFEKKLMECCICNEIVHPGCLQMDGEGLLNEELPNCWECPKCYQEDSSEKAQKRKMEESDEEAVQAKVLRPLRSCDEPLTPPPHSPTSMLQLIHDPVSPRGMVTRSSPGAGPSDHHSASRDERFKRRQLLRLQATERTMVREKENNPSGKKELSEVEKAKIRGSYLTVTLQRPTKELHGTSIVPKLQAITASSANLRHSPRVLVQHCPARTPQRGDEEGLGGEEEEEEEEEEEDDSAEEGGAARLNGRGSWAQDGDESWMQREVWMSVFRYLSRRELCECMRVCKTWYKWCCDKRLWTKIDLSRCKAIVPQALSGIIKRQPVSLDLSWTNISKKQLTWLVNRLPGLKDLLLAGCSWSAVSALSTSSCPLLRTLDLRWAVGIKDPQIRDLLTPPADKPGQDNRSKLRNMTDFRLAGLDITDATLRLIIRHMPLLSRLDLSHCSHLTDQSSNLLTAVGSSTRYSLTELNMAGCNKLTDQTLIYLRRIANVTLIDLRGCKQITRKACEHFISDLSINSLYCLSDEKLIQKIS

[5] = molecular target: T2, Lysine-specific demethylase 2A; assay: Competitive inhibition of recombinant His6-tagged KDM2A (1 to 517 residues) (unknown origin) expressed in Escherichia coli BL21 cells using methylstat as substrate preincubated for 30 mins followed by substrate addition measured after 4 hrs by fluorescence polarization assay

Chain of Lysine-specific demethylase 5A (P29375 whole entry): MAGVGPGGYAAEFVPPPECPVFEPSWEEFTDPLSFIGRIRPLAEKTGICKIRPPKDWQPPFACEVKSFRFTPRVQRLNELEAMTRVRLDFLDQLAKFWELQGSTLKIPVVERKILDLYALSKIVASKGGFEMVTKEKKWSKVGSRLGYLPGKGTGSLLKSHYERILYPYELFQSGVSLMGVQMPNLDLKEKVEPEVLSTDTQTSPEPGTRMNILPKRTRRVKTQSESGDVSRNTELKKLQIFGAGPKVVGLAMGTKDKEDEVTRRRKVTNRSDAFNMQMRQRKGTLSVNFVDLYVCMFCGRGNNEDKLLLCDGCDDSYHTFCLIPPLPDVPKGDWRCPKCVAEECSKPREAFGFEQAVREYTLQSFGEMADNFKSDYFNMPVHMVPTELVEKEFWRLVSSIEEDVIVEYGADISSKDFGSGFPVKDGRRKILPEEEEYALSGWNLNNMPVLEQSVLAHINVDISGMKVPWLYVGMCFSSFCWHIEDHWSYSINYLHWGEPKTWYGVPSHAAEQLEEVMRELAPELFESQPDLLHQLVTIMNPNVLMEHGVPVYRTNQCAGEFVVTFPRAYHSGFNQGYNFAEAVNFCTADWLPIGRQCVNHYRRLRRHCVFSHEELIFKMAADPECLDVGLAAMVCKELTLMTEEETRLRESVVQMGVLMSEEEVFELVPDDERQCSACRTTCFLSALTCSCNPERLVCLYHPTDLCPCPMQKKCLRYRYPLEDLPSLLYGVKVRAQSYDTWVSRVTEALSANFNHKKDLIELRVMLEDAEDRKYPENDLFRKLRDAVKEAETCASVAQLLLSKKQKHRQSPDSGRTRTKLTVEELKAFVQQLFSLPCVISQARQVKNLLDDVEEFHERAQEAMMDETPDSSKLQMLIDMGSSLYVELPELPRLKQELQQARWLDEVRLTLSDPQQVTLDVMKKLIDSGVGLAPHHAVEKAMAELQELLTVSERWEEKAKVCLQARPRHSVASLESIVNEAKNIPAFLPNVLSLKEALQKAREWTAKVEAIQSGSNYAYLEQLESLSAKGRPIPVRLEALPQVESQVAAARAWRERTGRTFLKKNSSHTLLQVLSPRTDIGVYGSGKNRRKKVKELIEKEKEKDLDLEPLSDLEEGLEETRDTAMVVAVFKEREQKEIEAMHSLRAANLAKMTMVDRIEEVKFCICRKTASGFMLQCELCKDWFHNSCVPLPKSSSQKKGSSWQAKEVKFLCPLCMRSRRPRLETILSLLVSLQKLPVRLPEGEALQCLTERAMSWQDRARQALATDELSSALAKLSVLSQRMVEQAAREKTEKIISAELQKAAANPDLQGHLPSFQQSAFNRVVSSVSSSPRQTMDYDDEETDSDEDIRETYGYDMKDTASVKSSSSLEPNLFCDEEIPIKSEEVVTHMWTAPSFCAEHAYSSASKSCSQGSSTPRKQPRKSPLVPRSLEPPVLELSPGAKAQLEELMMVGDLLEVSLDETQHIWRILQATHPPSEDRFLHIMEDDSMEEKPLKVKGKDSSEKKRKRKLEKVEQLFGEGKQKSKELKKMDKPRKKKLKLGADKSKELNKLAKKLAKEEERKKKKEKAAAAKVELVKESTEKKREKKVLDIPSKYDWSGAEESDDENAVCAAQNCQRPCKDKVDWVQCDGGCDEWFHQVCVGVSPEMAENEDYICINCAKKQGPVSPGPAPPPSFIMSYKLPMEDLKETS

Row | SMILES | IC50 [1] [µM] | Ki [2] [µM] | GI50 [3] [µM] | EC50 [4] [µM] | Ki [5] [µM]
1 | CCCCc1oc2ccccc2c1C(=O)c1cc(I)c(OCCCC[N+](C)(C)C)c(I)c1 | 41 | – | – | – | –
2 | CCCCCC[n+]1ccc(/C=C/c2ccc(N(C)C)cc2)cc1 | – | 0.42 | 0.071 | 0.28 | 0.28
